# Test results from PubChem BioAssay AID2060497 (Molecular Pharmacology Branch, DTP, NCI, 2025).
# Test system: 317291-083-R-J1-PDC complex spheroids, viability
# Assay: Anticancer human tumor 317291-083-R-J1-PDC patient-derived soft tissue sarcoma cell line growth inhibition [GQUAD]
# Settings: for IC50: curve of first compound; for viability, T/C: stronger effect = lower value
# How it was run: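 Viability of tumor cells grown as complex spheroids with endothelial and stromal cells, exposed to drug combinations. Top concentration at or near clinical Cmax (else 10 microM), diluted in half-log increments.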
# [1] = second compound 0.0316 µM, first compound 0.0316 µM
# [2] = second compound 0.0316 µM, first compound 0.316 µM
# [3] = second compound 0.1 µM, first compound 0.0316 µM
# [4] = second compound 0.1 µM, first compound 0.316 µM
# [5] = second compound 0.316 µM, first compound 0.0316 µM
# [6] = second compound 0.316 µM, first compound 0.316 µM
# [7] = second compound 1 µM, first compound 0.0316 µM
# [8] = second compound 1 µM, first compound 0.316 µM
# [9] = second compound 3.16 µM, first compound 0.0316 µM
# [10] = second compound 3.16 µM, first compound 0.316 µM
# [11] = second compound 10 µM, first compound 0.0316 µM
# [12] = second compound 10 µM, first compound 0.316 µM
# [13] = second compound 0.0316 µM, first compound 0.1 µM
# [14] = second compound 0.0316 µM, first compound 1 µM
# [15] = second compound 0.0316 µM, first compound 3.16 µM
# [16] = second compound 0.0316 µM, first compound 10 µM
# [17] = second compound 0.1 µM, first compound 0.1 µM
# [18] = second compound 0.1 µM, first compound 1 µM
# [19] = second compound 0.1 µM, first compound 3.16 µM
# [20] = second compound 0.1 µM, first compound 10 µM
# [21] = second compound 0.316 µM, first compound 0.1 µM
# [22] = second compound 0.316 µM, first compound 1 µM
# [23] = second compound 0.316 µM, first compound 3.16 µM
# [24] = second compound 0.316 µM, first compound 10 µM
# [25] = second compound 1 µM, first compound 0.1 µM
# [26] = second compound 1 µM, first compound 1 µM
# [27] = second compound 1 µM, first compound 3.16 µM
# [28] = second compound 1 µM, first compound 10 µM
# [29] = second compound 3.16 µM, first compound 0.1 µM
# [30] = second compound 3.16 µM, first compound 1 µM
# [31] = second compound 3.16 µM, first compound 3.16 µM
# [32] = second compound 3.16 µM, first compound 10 µM
# [33] = second compound 10 µM, first compound 0.1 µM
# [34] = second compound 10 µM, first compound 1 µM
# [35] = second compound 10 µM, first compound 3.16 µM
# [36] = second compound 10 µM, first compound 10 µM
# 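Also: spheroids exposed to compounds for one week before readout.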
# 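For viability, T/C in this document: percent viability relative to DMSO vehicle wells taken as 100%.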
smiles,measurement,setting,value
Cc1[nH]c2ccccc2c1CCNCc1ccc(/C=C/C(=O)NO)cc1 + Cc1[nH]c2ccc(F)cc2c1-c1nc2c3cccnc3c3ncccc3c2[nH]1,IC50,second compound 0.0316 µM,43.4 nM
same,IC50,second compound 0.1 µM,48.1 nM
same,IC50,second compound 0.316 µM,12.1 nM
same,IC50,second compound 1 µM,4.07 nM
same,IC50,second compound 3.16 µM,1.08 nM
same,IC50,second compound 10 µM,< 0.999 nM
same,"viability, T/C","second compound 0.0316 µM, first compound 0.000999 µM",114%
same,"viability, T/C","second compound 0.0316 µM, first compound 0.00316 µM",96.7%
same,"viability, T/C","second compound 0.0316 µM, first compound 0.00999 µM",96.9%
same,"viability, T/C",[1],67%
same,"viability, T/C","second compound 0.0316 µM, first compound 0.0999 µM",6.7%
same,"viability, T/C",[2],0.62%
same,"viability, T/C","second compound 0.1 µM, first compound 0.000999 µM",93.4%
same,"viability, T/C","second compound 0.1 µM, first compound 0.00316 µM",93.3%
same,"viability, T/C","second compound 0.1 µM, first compound 0.00999 µM",85.2%
same,"viability, T/C",[3],74%
same,"viability, T/C","second compound 0.1 µM, first compound 0.0999 µM",8.53%
same,"viability, T/C",[4],0.12%
same,"viability, T/C","second compound 0.316 µM, first compound 0.000999 µM",73.3%
same,"viability, T/C","second compound 0.316 µM, first compound 0.00316 µM",68.5%
same,"viability, T/C","second compound 0.316 µM, first compound 0.00999 µM",53.9%
same,"viability, T/C",[5],28.9%
same,"viability, T/C","second compound 0.316 µM, first compound 0.0999 µM",6.05%
same,"viability, T/C",[6],0.16%
same,"viability, T/C","second compound 1 µM, first compound 0.000999 µM",59.9%
same,"viability, T/C","second compound 1 µM, first compound 0.00316 µM",51%
same,"viability, T/C","second compound 1 µM, first compound 0.00999 µM",39.7%
same,"viability, T/C",[7],15.5%
same,"viability, T/C","second compound 1 µM, first compound 0.0999 µM",3.36%
same,"viability, T/C",[8],0.14%
same,"viability, T/C","second compound 3.16 µM, first compound 0.000999 µM",51.5%
same,"viability, T/C","second compound 3.16 µM, first compound 0.00316 µM",39%
same,"viability, T/C","second compound 3.16 µM, first compound 0.00999 µM",19.9%
same,"viability, T/C",[9],27.9%
same,"viability, T/C","second compound 3.16 µM, first compound 0.0999 µM",1.59%
same,"viability, T/C",[10],0.17%
same,"viability, T/C","second compound 10 µM, first compound 0.000999 µM",48.7%
same,"viability, T/C","second compound 10 µM, first compound 0.00316 µM",49%
same,"viability, T/C","second compound 10 µM, first compound 0.00999 µM",51.4%
same,"viability, T/C",[11],13.5%
same,"viability, T/C","second compound 10 µM, first compound 0.0999 µM",3.62%
same,"viability, T/C",[12],0.24%
CC1COCCN1c1cc(-c2ccnn2C)c2ccnc(-c3ccn[nH]3)c2n1 (stereo not drawn) + Cc1cnc(CNC(=O)c2c(=O)c3ccc(N4CCCN(C)CC4)nc3n3c2sc2ccccc23)cn1,IC50,second compound 0.0316 µM,< 31.6 nM
same,IC50,second compound 0.1 µM,39.5 nM
same,IC50,second compound 0.316 µM,< 31.6 nM
same,IC50,second compound 1 µM,< 31.6 nM
same,IC50,second compound 3.16 µM,< 31.6 nM
same,IC50,second compound 10 µM,< 31.6 nM
same,"viability, T/C",[1],49.6%
same,"viability, T/C",[13],19.1%
same,"viability, T/C",[2],13%
same,"viability, T/C",[14],10.9%
same,"viability, T/C",[15],23.9%
same,"viability, T/C",[16],12.7%
same,"viability, T/C",[3],59%
same,"viability, T/C",[17],12.5%
same,"viability, T/C",[4],9.96%
same,"viability, T/C",[18],15.6%
same,"viability, T/C",[19],11.6%
same,"viability, T/C",[20],11.4%
same,"viability, T/C",[5],35.6%
same,"viability, T/C",[21],14.6%
same,"viability, T/C",[6],12.3%
same,"viability, T/C",[22],11%
same,"viability, T/C",[23],13.2%
same,"viability, T/C",[24],16.6%
same,"viability, T/C",[7],25.1%
same,"viability, T/C",[25],25.1%
same,"viability, T/C",[8],11.3%
same,"viability, T/C",[26],9.59%
same,"viability, T/C",[27],20.1%
same,"viability, T/C",[28],11.5%
same,"viability, T/C",[9],11.3%
same,"viability, T/C",[29],8.19%
same,"viability, T/C",[10],9.69%
same,"viability, T/C",[30],12.1%
same,"viability, T/C",[31],17.1%
same,"viability, T/C",[32],11.5%
same,"viability, T/C",[11],11.8%
same,"viability, T/C",[33],11.6%
same,"viability, T/C",[12],13.7%
same,"viability, T/C",[34],8.98%
same,"viability, T/C",[35],11.4%
same,"viability, T/C",[36],18.6%
CC1COCCN1c1cc(C2(S(C)(=N)=O)CC2)nc(-c2ccnc3[nH]ccc23)n1 (stereo not drawn) + Cc1cnc(CNC(=O)c2c(=O)c3ccc(N4CCCN(C)CC4)nc3n3c2sc2ccccc23)cn1,IC50,second compound 0.0316 µM,1280 nM
same,IC50,second compound 0.1 µM,493 nM
same,IC50,second compound 0.316 µM,< 31.6 nM
same,IC50,second compound 1 µM,< 31.6 nM
same,IC50,second compound 3.16 µM,< 31.6 nM
same,IC50,second compound 10 µM,< 31.6 nM
same,"viability, T/C",[1],97.2%
same,"viability, T/C",[13],99.6%
same,"viability, T/C",[2],69.2%
same,"viability, T/C",[14],67.6%
same,"viability, T/C",[15],19%
same,"viability, T/C",[16],10.4%
same,"viability, T/C",[3],66.2%
same,"viability, T/C",[17],111%
same,"viability, T/C",[4],64.6%
same,"viability, T/C",[18],34.4%
same,"viability, T/C",[19],22.5%
same,"viability, T/C",[20],23.2%
same,"viability, T/C",[5],44%
same,"viability, T/C",[21],42.2%
same,"viability, T/C",[6],42.8%
same,"viability, T/C",[22],35%
same,"viability, T/C",[23],12.2%
same,"viability, T/C",[24],18.2%
same,"viability, T/C",[7],34.8%
same,"viability, T/C",[25],60.1%
same,"viability, T/C",[8],32.2%
same,"viability, T/C",[26],20.8%
same,"viability, T/C",[27],25.3%
same,"viability, T/C",[28],14.8%
same,"viability, T/C",[9],16.2%
same,"viability, T/C",[29],22.4%
same,"viability, T/C",[10],18%
same,"viability, T/C",[30],26.7%
same,"viability, T/C",[31],15.4%
same,"viability, T/C",[32],14.6%
same,"viability, T/C",[11],39.2%
same,"viability, T/C",[33],19.8%
same,"viability, T/C",[12],46.7%
same,"viability, T/C",[34],9.84%
same,"viability, T/C",[35],20.8%
same,"viability, T/C",[36],9.87%
COc1ccc([C@@H](O)c2cc(-c3ncnc4cc(N5CCOCC5)ccc34)c(F)cc2Cl)nn1 + Cc1cnc(CNC(=O)c2c(=O)c3ccc(N4CCCN(C)CC4)nc3n3c2sc2ccccc23)cn1,IC50,second compound 0.0316 µM,2030 nM
same,IC50,second compound 0.1 µM,163 nM
same,IC50,second compound 0.316 µM,61.9 nM
same,IC50,second compound 1 µM,< 31.6 nM
same,IC50,second compound 3.16 µM,< 31.6 nM
same,IC50,second compound 10 µM,< 31.6 nM
same,"viability, T/C",[1],108%
same,"viability, T/C",[13],92.1%
same,"viability, T/C",[2],68.2%
same,"viability, T/C",[14],66.6%
same,"viability, T/C",[15],41.5%
same,"viability, T/C",[16],30.7%
same,"viability, T/C",[3],85.9%
same,"viability, T/C",[17],50.3%
same,"viability, T/C",[4],49.4%
same,"viability, T/C",[18],35.1%
same,"viability, T/C",[19],24.1%
same,"viability, T/C",[20],31.8%
same,"viability, T/C",[5],58.2%
same,"viability, T/C",[21],42.9%
same,"viability, T/C",[6],38.1%
same,"viability, T/C",[22],22.4%
same,"viability, T/C",[23],24.2%
same,"viability, T/C",[24],19.8%
same,"viability, T/C",[7],41%
same,"viability, T/C",[25],25.3%
same,"viability, T/C",[8],19.6%
same,"viability, T/C",[26],23.4%
same,"viability, T/C",[27],33.7%
same,"viability, T/C",[28],22.7%
same,"viability, T/C",[9],40.1%
same,"viability, T/C",[29],41.4%
same,"viability, T/C",[10],19.8%
same,"viability, T/C",[30],20.6%
same,"viability, T/C",[31],23%
same,"viability, T/C",[32],16.9%
same,"viability, T/C",[11],19.1%
same,"viability, T/C",[33],40.8%
same,"viability, T/C",[12],17.7%
same,"viability, T/C",[34],17.3%
same,"viability, T/C",[35],18.6%
same,"viability, T/C",[36],19.9%
